Results taken from patent publication US20130203718A1 (priority 2010, published 2013).
“Also recorded” adds a separate entry of the source.

Molecular target: T1, hPRB (Homo sapiens, UniProt P06401)
T1 sequence (P06401 1-933): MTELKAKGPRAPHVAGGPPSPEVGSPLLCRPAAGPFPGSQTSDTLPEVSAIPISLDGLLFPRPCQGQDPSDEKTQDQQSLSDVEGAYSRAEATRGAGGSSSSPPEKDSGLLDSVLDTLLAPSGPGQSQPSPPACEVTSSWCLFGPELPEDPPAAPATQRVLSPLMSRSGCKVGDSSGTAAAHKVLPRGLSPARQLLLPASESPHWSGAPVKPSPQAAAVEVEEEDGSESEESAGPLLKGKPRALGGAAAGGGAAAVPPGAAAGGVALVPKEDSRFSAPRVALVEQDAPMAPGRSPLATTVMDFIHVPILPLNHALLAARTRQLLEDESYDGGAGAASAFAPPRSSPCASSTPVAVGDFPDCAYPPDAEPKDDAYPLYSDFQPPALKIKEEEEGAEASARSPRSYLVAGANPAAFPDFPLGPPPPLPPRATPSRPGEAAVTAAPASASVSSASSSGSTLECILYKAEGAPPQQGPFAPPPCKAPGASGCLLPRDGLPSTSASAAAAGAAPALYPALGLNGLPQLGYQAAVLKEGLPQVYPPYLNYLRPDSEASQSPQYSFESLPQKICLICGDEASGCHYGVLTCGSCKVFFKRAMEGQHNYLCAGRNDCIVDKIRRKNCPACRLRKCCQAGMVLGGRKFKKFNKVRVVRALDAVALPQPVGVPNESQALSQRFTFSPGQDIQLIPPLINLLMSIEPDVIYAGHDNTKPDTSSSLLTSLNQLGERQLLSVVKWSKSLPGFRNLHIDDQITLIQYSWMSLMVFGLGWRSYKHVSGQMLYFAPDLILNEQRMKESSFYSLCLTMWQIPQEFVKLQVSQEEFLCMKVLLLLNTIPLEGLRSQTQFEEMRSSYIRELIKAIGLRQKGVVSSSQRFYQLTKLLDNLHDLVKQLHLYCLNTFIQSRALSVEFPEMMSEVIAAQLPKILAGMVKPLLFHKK
Experiment: PR transactivation assay (GRE2-Luc) in HEK293T cells transiently expressing hPRB
Assay type: cell-based
Design: expressed in transfected cells; host or cells: HEK 293T
Details: APRn 1 μM
How it was run: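 HEK293T cells transiently transfected by calcium phosphate with human PRB, GRE2-Luc reporter and β-gal control, grown in dextran-charcoal-treated FCS. Luciferase measured in lysates; agonist efficacy at 1 μM compound as ratio of luciferase activities ×100, antagonist efficacy as 100 minus that ratio; mean±SEM of 3-5 experiments.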

[1] = series 2-4, stated for both HEK293T and MDA-MB-231 iPRAB cells, FIGS. 3-8
[2] = series 1 (no C3 substituent), HEK293T, FIG. 1

Row | Structure (SMILES) | hPRB agonist/antagonist character (in words) [1] | hPRB agonist/antagonist character (in words) [2]
1 | CC(=O)[C@H]1CC[C@H]2[C@@H]3CC=C4C[C@@H](F)CC[C@]4(C)[C@H]3CC[C@]12C [APR-16, 3β-Fluoropregn-5-en-20-one] | efficient hPRB antagonists; also recorded: agonist activity of this molecule is completely abolished | –
2 | CC#C[C@]1(O)CCC2C3CC[C@H]4CCCC[C@]4(C)C3CC[C@@]21C (stereo partly drawn) [APR-42, 17α-(1-Propynyl)-5α-androstan-17β-ol] | – | full antagonists
3 | C[C@]12CCC3C(CC=C4C[C@@H](F)CC[C@@H]43)C1CCC2=O (stereo partly drawn) [APR-47, 3β-Fluoro-19-nor-androst-5-en-17-one] | efficient hPRB antagonists | –
4 | CC#C[C@]1(O)CCC2C3CC[C@H]4CCCC[C@@H]4C3CC[C@@]21C (stereo partly drawn) [APR-54, 17α-(1-Propynyl)-19-nor-5-androstan-17β-ol] | – | full antagonists
